Earlier results as cited in patent US20060057203A1 (priority 2002, published 2006).

In the case of `NC(=O)N1c2ccccc2CC(=O)c2ccccc21` [oxcarbazepine], the solubility in water is listed as “practically insoluble”.
